Assay results from patent US10174020B2, “Pyridone or pyrimidone derivative, preparation method therefor and application thereof” (Sichuan Haisco Pharmaceutical Co., Ltd., priority 2014, dated 2019).

How the values were obtained:
[1] = target: human blood-coagulation factor XIa (Homo sapiens (Human), UniProt P03951); assay: In vitro inhibitory effect on the enzymatic activity of blood-coagulation factor XIa (S2366 substrate, absorbance at 405 nm); assay type: biochemical; conditions: calculated from IC50 at substrate S2366 200 μM, Km=0.2 mM; IC50=Ki(1+[S]/Km)
Experimental: The following method was used to test the in vitro inhibitory effect of the compounds of the present invention on the activity of human blood-coagulation factor XIa, expressed by the Inhibition constant Ki.
Solution preparation: reaction buffer: 0.03M HEPES acid, 0.145M NaCl, 0.005 M KCl, 0.1% PEG-8000, pH=7.5;
HEPES 8.499 g, NaCl 8.47 g, KCl 0.3725, PEG 8000 1 g, plus ddH2O 800 ml; the pH was adjusted to […] with HCl, and the volume was metered to 1 L.
S2366 substrate stock solution (2 mM): a volume of substrate […] was dissolved in 23 ml sterile deionized water, aliquoted, and stored at 4° C. in darkness.
S2366 substrate working solution: the stock solution was diluted by 4 folds with the reaction buffer before use.
FXIa working solution: 1 μl FXIa stock solution was added to 10 ml reaction buffer and thoroughly mixed before use.
Method: 15 μl test sample working solution (15 μl DMSO for the control group) and 75 μl FXIa working solution were added to a 96-well plate, and incubated at room temperature for 15 min. Then 60 μl S2366 substrate working solution was added to initiate the reaction. The absorbance at 405 nm for the test compounds was continually assayed once every 3 minutes, and a ΔA-time curve was plotted to calculate the slope as the reaction rate. In accordance with the following equation, IC50 of each test sample when the substrate concentration was 200 μM was calculated with spss 16.0. Inhibition (I %) and Ki of the test samples were calculated in accordance with the follow equations, and the results are shown in Table 1. I %=(V0−Vi)/V0×100 where V0 is the reaction rate in the control wells, and Vi is the reaction rate in the test sample wells; IC50=Ki(1+[S]/Km) where Km=0.2 mM, and [S] is the substrate concentration=200 μM.

human plasma = assay: In vitro assay of the blood coagulation function of human plasma (APTT); assay type: biochemical; conditions: concentration required to double the plasma APTT, read-out: aPTT EC2×
Experimental: 20 ml blood was taken by venipuncture from the ulnar vein of each of 20 healthy volunteers aged 25 to 35 years who had not taken any medicines within last one week, and was collected in a sodium citrate anticoagulation tube, with the ratio of anticoagulant to blood being 1:9 (v/v). Anticoagulation blood was taken and centrifuged at 200 g for 15 min, the supernatant therefrom was taken and centrifuged at 2000 g for 15 min, and then the supernatant therefrom was collected, well mixed, separated into 4 to 5 ml aliquots, and stored at −80° C. For APTT and PT assays, a plasma sample was taken and rapidly thawed in a 37° C. water bath, and 6 μl test compound working solution was added per 294 μl plasma, while 6 μl DMSO was added for the blank control. The compounds and plasma were well mixed, and assayed in a coagulometer. The concentration of the compounds (EC2×) required to double the plasma APTT was determined with origin 8.5, and the results are shown in Table 2.

human blood-coagulation factor XIa, sequence (P03951 388-625): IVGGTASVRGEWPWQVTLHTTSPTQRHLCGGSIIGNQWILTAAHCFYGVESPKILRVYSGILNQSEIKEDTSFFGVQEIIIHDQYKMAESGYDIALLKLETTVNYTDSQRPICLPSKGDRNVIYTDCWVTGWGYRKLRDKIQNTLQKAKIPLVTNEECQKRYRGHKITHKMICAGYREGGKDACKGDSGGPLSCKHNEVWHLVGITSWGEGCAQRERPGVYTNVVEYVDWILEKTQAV
human blood-coagulation factor XIa, sequence (P03951 19-387 partner): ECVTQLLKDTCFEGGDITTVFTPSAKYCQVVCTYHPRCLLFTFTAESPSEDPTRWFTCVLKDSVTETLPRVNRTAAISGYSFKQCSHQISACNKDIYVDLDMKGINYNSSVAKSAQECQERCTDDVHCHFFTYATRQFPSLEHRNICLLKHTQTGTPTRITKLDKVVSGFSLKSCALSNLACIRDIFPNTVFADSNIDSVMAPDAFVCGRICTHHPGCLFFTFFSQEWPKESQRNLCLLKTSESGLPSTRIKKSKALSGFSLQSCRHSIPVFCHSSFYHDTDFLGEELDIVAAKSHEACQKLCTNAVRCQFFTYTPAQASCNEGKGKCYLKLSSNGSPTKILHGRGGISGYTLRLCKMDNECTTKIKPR

Ki [1] [nM]	Compound	EC50 (human plasma) [µM]
249	O=C(O)c1ccc(NC(=O)C2CCc3nc(-c4cc(Cl)ccc4-n4cnnn4)cc(=O)n32)cc1 (stereo not shown) [Compound 1, N-(4-carboxyphenyl)-2-(5-chloro-2-(1H-tetrazol-1-yl)phenyl)-4-oxo-4,6,7,8-tetrahydropyrrolo[1,2-a]pyrimidine-6-carboxamide]	
68	O=C(O)c1ccc(NC(=O)C2CCc3cc(-c4cc(Cl)ccc4-n4cnnn4)cc(=O)n32)cc1 (stereo not shown) [Compound 2, N-(4-carboxyphenyl)-7-(5-chloro-2-(1H-tetrazol-1-yl)phenyl)-5-oxo-1,2,3,5-tetrahydroindolizine-3-carboxamide]	
17	O=C(O)c1cc2cc(NC(=O)C3CCc4nc(-c5cc(Cl)ccc5-n5cnnn5)cc(=O)n43)ccc2[nH]1 (stereo not shown) [Compound 4, N-(2-carboxyindol-5-yl)-2-(5-chloro-2-(1H-tetrazol-1-yl)phenyl)-4-oxo-4,6,7,8-tetrahydropyrrolo[1,2-a]pyrimidine-6-carboxamide]	9.5
146	O=C(Cn1ccc(-c2cc(Cl)ccc2-n2cnnn2)cc1=O)Nc1ccc(C(=O)O)cc1 [Compound 5]	
14	O=C(Cn1ccc(-c2cc(Cl)ccc2-n2cnnn2)cc1=O)Nc1ccc2[nH]c(C(=O)O)cc2c1 [Compound 6]	
4	O=C(O)c1cc2cc(NC(=O)C(Cc3ccccc3)n3ccc(-c4cc(Cl)ccc4-n4cnnn4)cc3=O)ccc2[nH]1 (stereo not shown) [Compound 9, 5-[[2-[4-[5-chloro-2-(tetrazol-1-yl)phenyl]-2-oxo-1-pyridyl]-3-phenyl-propanoyl]amino]-1H-indole-2-carboxylic Acid]	6.4

Compound	Ki [1] [nM]	EC50 (human plasma) [µM]
O=C(O)c1cc2cc(NC(=O)[C@@H]3CCc4cc(-c5cc(Cl)ccc5-n5cnnn5)cc(=O)n43)ccc2[nH]1 (single isomer, unassigned) [Compound 8-1]	2	2.3
O=C(O)c1cc2cc(NC(=O)[C@H]3CCc4cc(-c5cc(Cl)ccc5-n5cnnn5)cc(=O)n43)ccc2[nH]1 (single isomer, unassigned) [Compound 8-2]	1030	
O=C(O)c1cc2cc(NC(=O)C3CCc4cc(-c5cc(Cl)ccc5-n5cnnn5)cc(=O)n43)ccc2[nH]1 (stereo not shown) [Compound 3, N-(2-carboxyindol-5-yl)-7-(5-chloro-2-(1H-tetrazol-1-yl)phenyl)-5-oxo-1,2,3,5-tetrahydroindolizine-3-carboxamide]	9	6.1
